Holding throughout (assay): inhibition of tumour cell growth, NCI panel, 48 h
The test system of assay [1] is HL-60(TB) leukemia.
In assay [2] the test system is M14 melanoma.
The test system of assay [3] is MOLT-4 leukemia.
The subject of assay [4] is NCI-H23 lung.
The test system of assay [5] is RXF 393 renal.
Assay [6] has as its system SF-268 CNS.
Assay [7] concerns SF-539 CNS.
For assay [8], the system named is SK-MEL-5 melanoma.
The test system of assay [9] is SK-OV-3 ovarian.
Assay [10] relates to U251 CNS.

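96-well plates; 48 h exposure; 5 concentrations. Endpoints by linear interpolation between flanking doses. Not reached: highest tested concentration assigned. Definition used: TGI = concentration required for complete inhibition of growth.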 Some results are limits rather than exact numbers.

In the case of `NCCC(N)C(=O)O` (stereo not given), the TGI in [1], in [2], in assay [3], in assay [4], in assay [5] and in assay [6] was above 100 µM throughout. Further, the TGI in assay [7], in assay [8], in [9] and in assay [10] was above 100 µM throughout.

Consider `COc1cccc(N2C(=O)C3c4[nH]c5ccccc5c4C4c5ccccc5CCC4C3C2=O)c1` (stereo not given), for which the TGI in [1], in assay [2], in assay [3], in [4], in assay [5] and in assay [6] was above 10 µM in each case. The TGI in [7] is 6.11 µM; in assay [8], above 10 µM; in [9] it was above 7.28 µM; in assay [10], above 8.12 µM.

Take `COC(=O)C12Oc3ccc(-c4ccc5c(c4O)C(=O)C4=CCC(C)C(O)C4(C(=O)OC)O5)c(O)c3C(=O)C1=CCC(C)C2O` (stereo not given): the TGI in assay [1] is 5.1 µM; in [2], 3.46 µM; in assay [3], above 23 µM; in [4], 2.83 µM; in assay [5] it was 3.03 µM; in assay [6] it was 3.57 µM. The TGI turned out to be 11.9 µM in assay [7], 3.13 µM in assay [8], 6.71 µM in assay [9] and 3.06 µM in [10].

For the compound `CC(C)CCCC(C)[C@H]1CCC2[C@@H]3CCC4Cc5nc6c(nc5C[C@]4(C)C3CC[C@@]21C)CC1CC[C@@H]2C(C[C@@H](O)[C@@]3(C)C2C[C@@H]2OC4(CCC(C)CO4)C(C)[C@@H]23)[C@@]1(C)C6` (stereo not given in full), the TGI in assay [1], in assay [2], in [3], in assay [4], in [5] and in [6] was above 100 µM each time. Besides, the TGI in assay [7], in assay [8], in assay [9] and in [10] was above 100 µM in each case.

As for `O=C(Nc1sccc1S(=O)(=O)c1ccccc1)c1cccnc1`, the TGI in assay [1] is 4.28 µM; in assay [2] it was above 100 µM; in assay [3], above 100 µM; in [4], above 80.2 µM; in [5], above 100 µM; in [6], above 100 µM. For the same compound, the TGI in assay [7] is 38.2 µM; in assay [8] it was above 26.3 µM; in [9], above 89.1 µM; in assay [10], above 100 µM.

On to `O=C(Nc1ccccc1)O/N=C(/CBr)c1ccccc1`, for which the TGI in assay [1] was 32.5 µM; in assay [2], 28.4 µM; in [3], above 100 µM; in assay [4], 26.2 µM; in [5], 48 µM; in assay [6] it was 47.7 µM. Further, the TGI amounted to 29.5 µM in assay [7], 28.1 µM in assay [8], 95 µM in assay [9] and 30.5 µM in assay [10].

With `Cc1cn(C2CC(n3cc(Cn4cc(F)c(=O)[nH]c4=O)nn3)C(CO)O2)c(=O)[nH]c1=O` (stereo not given), the TGI in assay [1], in assay [2], in assay [3], in assay [4], in [5] and in assay [6] was above 100 µM throughout. For the same compound, the TGI in assay [7], in assay [8], in assay [9] and in assay [10] was above 100 µM throughout.

With `CSc1c(C(=O)Nc2ccccc2)c(N)nn1-c1ccccc1`, the TGI in assay [1], in assay [2], in assay [3], in assay [4], in assay [5] and in assay [6] was above 100 µM each time. Besides, the TGI in assay [7], in assay [8], in assay [9] and in assay [10] was above 100 µM throughout.

`COC(=O)c1cc(C)ccc1CC(Cc1cccc(C)c1)C(=O)OC` (stereo not given): the TGI in [1] was above 100 µM; in [2], above 100 µM; in assay [3], above 100 µM; in assay [4], above 100 µM; in assay [5], 73.6 µM; in [6], 53.9 µM. Also, the TGI in assay [7] is above 100 µM; in assay [8] it was above 100 µM; in [9], 27.1 µM; in [10] it was above 100 µM.

For the compound `Cc1ccc(S(=O)(=O)N/C(=C\C=C\c2ccccc2)C(=O)C(C)(C)C)cc1`, the TGI in [1], in [2], in assay [3], in assay [4], in assay [5] and in assay [6] was above 100 µM each time. For the same compound, the TGI in assay [7], in assay [8], in assay [9] and in assay [10] was above 100 µM each time.

Take `O=[N+]([O-])c1cccc(-c2csc(N=Nc3c(O)[nH]c4ccccc34)n2)c1`: the TGI in assay [1] was 50.2 µM; in [2], above 100 µM; in assay [3], 69.6 µM; in assay [4] it was above 100 µM; in assay [5], 77.9 µM; in [6], 38.4 µM. Moreover, the TGI was 68 µM in assay [7], 49.9 µM in [8], above 100 µM in assay [9] and 40.4 µM in [10].

For `CCN1CC(C)Cn2c(=O)[nH]c3cc(Br)cc1c32` (stereo not given), the TGI in assay [1] is 37.5 µM; in assay [2], above 100 µM; in [3], 81.9 µM; in assay [4], above 100 µM; in assay [5], 37.3 µM; in assay [6], above 100 µM. In addition, the TGI in assay [7], in assay [8], in assay [9] and in [10] was above 100 µM each time.

Consider `CC(=O)O/C=C\OC1CCCC1(c1ccccc1)c1ccccc1` (stereo not given), for which the TGI was determined as 2.89 µM in assay [1]; 5.75 µM in assay [2]; 9.07 µM in assay [3]; 8.11 µM in assay [4]; 5.06 µM in [5]; 10.3 µM in assay [6]. Further, the TGI in [7] is 3.68 µM; in [8], 7.19 µM; in assay [9], 27.6 µM; in [10], 11.6 µM.

In the case of `COc1cc2c(cc1C[N+](C)(C)CSc1ccccc1)-c1ccccc1CC2`, the TGI in [1] is 2.46 µM; in assay [2], 7.95 µM; in [3], 9.59 µM; in [4] it was 14.4 µM; in [5] it was 23.1 µM; in assay [6], 18.5 µM. In addition, the TGI in assay [7] was found to be 20.6 µM; in [8] it was 2.39 µM; in assay [9] it was 26.1 µM; in [10], 27.8 µM.

Turning to `c1ccc(CNc2c3c(nc4ccccc24)CCC3)cc1`, the TGI in assay [1] amounted to 0.146 µM; in [2] it was 27.2 µM; in assay [3], 51 µM; in [4], 46.2 µM; in assay [5], 30.4 µM; in assay [6], 46.6 µM. Besides, the TGI is 36.7 µM in [7], 24.4 µM in assay [8], 36.2 µM in [9] and 30.4 µM in [10].

In the case of `CCCC/C=C1\CCC(CN2CCCCC2)C1=O` (stereo not given), the TGI in assay [1] turned out to be 14.4 µM; in assay [2], 24.4 µM; in [3], 18.4 µM; in assay [4], 45.1 µM; in assay [5], 18.1 µM; in assay [6] it was 51.6 µM. For the same compound, the TGI in [7] is 36.1 µM; in assay [8] it was 42.6 µM; in assay [9], above 56.2 µM; in assay [10], 44.1 µM.

For `COc1ccc2c(c1)O[C@@H]1C(O)Oc3cc(OC)c(OC)cc3[C@]1(O)C2=O` (stereo not given in full), the TGI in assay [1], in [2], in [3], in [4], in assay [5] and in [6] was above 100 µM throughout. For the same compound, the TGI was above 100 µM in [7], 72.4 µM in assay [8], above 100 µM in assay [9] and above 100 µM in assay [10].

Regarding `COC(=O)Cc1ccc2c(c1)Sc1ccc(CC(=O)OC)cc1N2C`, the TGI is above 93.3 µM in assay [1]; above 100 µM in assay [2]; above 100 µM in assay [3]; above 77.9 µM in assay [4]; above 100 µM in [5]; above 100 µM in [6]. Moreover, the TGI in assay [7] was above 100 µM; in assay [8] it was 26.3 µM; in assay [9], above 100 µM; in assay [10], above 100 µM.

Consider `CCCCCc1cc(OC(=O)c2c(O)cc(OC)cc2CCCCC)cc(O)c1C(=O)O`, for which the TGI in assay [1] was 60.2 µM; in assay [2], 38.1 µM; in assay [3], 60 µM; in [4] it was 27.1 µM; in assay [5], 30.8 µM; in assay [6], 30 µM. For the same compound, the TGI in [7] turned out to be 30.5 µM; in assay [8], 28.5 µM; in assay [9], 31.5 µM; in [10], 29.1 µM.

With `Cc1ccc(C)n2c1nc1ccc3ccccc3c12`, the TGI in assay [1], in [2], in assay [3], in assay [4], in assay [5] and in assay [6] was above 100 µM throughout. Moreover, the TGI in assay [7], in assay [8], in assay [9] and in assay [10] was above 100 µM each time.

On to `CN1CC2=C(OC(N)=C(C#N)C2c2cccs2)/C(=C/c2cccs2)C1` (stereo not given), for which the TGI is 12 µM in assay [1]; above 55.9 µM in [2]; above 26.5 µM in [3]; above 100 µM in [4]; 48.5 µM in assay [5]; above 31.1 µM in assay [6]. Further, the TGI in [7] is above 100 µM; in assay [8], 14.4 µM; in assay [9], above 100 µM; in assay [10], above 100 µM.

Take `Cn1ccnc1Sc1ccc(/C=N/NC(=O)c2ccccc2O)cc1[N+](=O)[O-]`: the TGI in assay [1] is above 100 µM; in [2], above 100 µM; in assay [3], 13.3 µM; in assay [4], above 100 µM; in [5], above 100 µM; in assay [6], above 100 µM. Further, the TGI in assay [7], in assay [8], in assay [9] and in [10] was above 100 µM each time.

Take `COc1ccc2c(c1)OC(c1cccnc1)C(c1ccccc1)C2=O` (stereo not given): the TGI in assay [1], in assay [2], in assay [3], in assay [4], in assay [5] and in assay [6] was above 100 µM throughout. For the same compound, the TGI in assay [7], in assay [8], in assay [9] and in [10] was above 100 µM each time.

As to `CN(C)c1ccc(/C=N/Nc2nc3ccccc3c(=O)n2-c2ccccc2)cc1`, the TGI in [1], in assay [2], in [3], in assay [4], in [5] and in assay [6] was above 100 µM throughout. Also, the TGI in assay [7] is 72 µM; in assay [8], above 100 µM; in assay [9], above 100 µM; in assay [10], above 100 µM.

Consider `COc1ccc(CCn2cnc3ccccc32)cc1`, for which the TGI in [1], in [2], in assay [3], in assay [4], in assay [5] and in assay [6] was above 100 µM throughout. Besides, the TGI in [7], in assay [8], in [9] and in assay [10] was above 100 µM throughout.

For the compound `CC(=O)C(C(C)=O)=C1CCCC(O)O1` (stereo not given), the TGI in assay [1], in assay [2], in assay [3], in [4], in [5] and in assay [6] was above 100 µM each time. The TGI in assay [7], in assay [8], in [9] and in [10] was above 100 µM each time.

Turning to `CSc1nc(NC2CCCC2)c2cc[nH]c2n1`, the TGI in assay [1] was 47.4 µM; in assay [2] it was above 100 µM; in assay [3] it was above 100 µM; in assay [4] it was above 100 µM; in [5] it was above 100 µM; in assay [6], above 100 µM. For the same compound, the TGI in assay [7] is above 100 µM; in [8], 96.6 µM; in [9], above 100 µM; in assay [10], above 100 µM.

The record behind these values is PubChem BioAssay (NCI).
